{
  "source": "ChEMBL document CHEMBL5316297",
  "about": "“Mechanistic Insight of Synthesized 1,4-Dihydropyridines as an Antidiabetic Sword against Reactive Oxygen Species” (J Med Chem, 2023)",
  "key": {"INS1 [1]": {"test_system": "INS1", "assay": "Induction of apoptosis in rat INS1 cells assessed as early apoptotic cells at 1 uM incubated for 36 hrs by Annexin V-FITC/ propidium iodide staining based flow cytometry analysis (reference value: 0.34%)", "type": "functional"}, "INS1 [2]": {"test_system": "INS1", "assay": "Induction of apoptosis in rat INS1 cells assessed as total apoptotic cells at 1 uM incubated for 36 hrs by Annexin V-FITC/ propidium iodide staining based flow cytometry analysis (reference value: 0.53%)", "type": "functional"}, "Mus musculus [3]": {"test_system": "Mus musculus", "assay": "Antidiabetic activity against high fat diet-STZ-induced diabetic Swiss albino mouse model assessed as reduction in blood glucose level at 0.2 mmol/Kg/day, po administered for 14 days relative to control", "type": "functional", "set-up": "scale not given: the % may be the effect or the level left", "settings": "time 14 day"}, "Mus musculus [4]": {"test_system": "Mus musculus", "assay": "Antidiabetic activity against high fat diet-STZ-induced diabetic Swiss albino mouse model assessed as reduction in blood glucose level at 0.2 mmol/Kg/day, po administered for 14 days relative to glimepiride", "type": "functional", "set-up": "scale not given: the % may be the effect or the level left", "settings": "time 14 day"}, "Mus musculus [5]": {"test_system": "Mus musculus", "assay": "Antidiabetic activity against high fat diet-STZ-induced diabetic Swiss albino mouse model assessed as serum insulin level at 0.2 mmol/Kg/day, po administered for 14 days by ELISA method (reference value: 16.37 +/- 0.62 uU/ml)", "type": "functional", "settings": "time 14 day"}, "Mus musculus [6]": {"test_system": "Mus musculus", "assay": "Antidiabetic activity against high fat diet-STZ-induced diabetic Swiss albino mouse model assessed as insulin resistance by measuring serum TNFalpha level at 0.2 mmol/Kg/day, po administered for 14 days by ELISA method (reference value: 376.50+/-14.50 ng/ml)", "type": "functional", "settings": "time 14 day"}, "Mus musculus [7]": {"test_system": "Mus musculus", "assay": "Antioxidant activity against high fat diet-STZ-induced diabetic Swiss albino mouse model assessed as serum SOD level at 0.2 mmol/Kg/day, po administered for 14 days (reference value: 273.01+/- 6.23 U/ml)", "type": "functional", "settings": "time 14 day"}, "INS1 [8]": {"test_system": "INS1", "assay": "Induction of apoptosis in rat INS1 cells assessed as late apoptotic cells at 1 uM incubated for 36 hrs by Annexin V-FITC/ propidium iodide staining based flow cytometry analysis (reference value: 0.19%)", "type": "functional"}, "Alpha glucosidase": {"target": "Alpha glucosidase (Homo sapiens, UniProt O43451+P10253+P14410+Q2M2H8)", "assay": "Inhibition of alpha glucosidase (unknown origin) measured after 60 mins", "type": "protein assay"}, "[9]": {"target": "T1, Sodium/glucose cotransporter 2 (Homo sapiens, UniProt P31639)", "T1 sequence (P31639 whole entry)": "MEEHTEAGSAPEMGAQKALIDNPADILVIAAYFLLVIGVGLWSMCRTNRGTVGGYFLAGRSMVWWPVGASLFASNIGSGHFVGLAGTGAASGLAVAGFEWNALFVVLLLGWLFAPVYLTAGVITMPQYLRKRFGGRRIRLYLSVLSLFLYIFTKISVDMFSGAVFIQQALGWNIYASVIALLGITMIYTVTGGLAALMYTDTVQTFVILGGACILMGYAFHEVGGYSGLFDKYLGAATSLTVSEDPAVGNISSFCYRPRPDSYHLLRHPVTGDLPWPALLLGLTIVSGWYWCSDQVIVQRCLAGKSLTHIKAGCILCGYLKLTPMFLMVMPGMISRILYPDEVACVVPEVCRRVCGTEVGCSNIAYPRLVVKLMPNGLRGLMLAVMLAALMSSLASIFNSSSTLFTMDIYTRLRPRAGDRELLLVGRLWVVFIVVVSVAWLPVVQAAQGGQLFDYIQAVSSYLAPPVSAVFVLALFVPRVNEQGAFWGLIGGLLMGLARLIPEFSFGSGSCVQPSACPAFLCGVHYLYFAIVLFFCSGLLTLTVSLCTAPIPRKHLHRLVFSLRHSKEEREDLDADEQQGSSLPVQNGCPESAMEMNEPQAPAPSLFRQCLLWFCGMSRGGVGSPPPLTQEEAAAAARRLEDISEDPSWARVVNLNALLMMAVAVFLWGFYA", "assay": "Inhibition of human SGLT2 by liquid scintillation counter analysis"}, "[10]": {"target": "Alpha amylase (Homo sapiens) (UniProt P0DUB6)", "sequence (P0DUB6 whole entry, looked up)": "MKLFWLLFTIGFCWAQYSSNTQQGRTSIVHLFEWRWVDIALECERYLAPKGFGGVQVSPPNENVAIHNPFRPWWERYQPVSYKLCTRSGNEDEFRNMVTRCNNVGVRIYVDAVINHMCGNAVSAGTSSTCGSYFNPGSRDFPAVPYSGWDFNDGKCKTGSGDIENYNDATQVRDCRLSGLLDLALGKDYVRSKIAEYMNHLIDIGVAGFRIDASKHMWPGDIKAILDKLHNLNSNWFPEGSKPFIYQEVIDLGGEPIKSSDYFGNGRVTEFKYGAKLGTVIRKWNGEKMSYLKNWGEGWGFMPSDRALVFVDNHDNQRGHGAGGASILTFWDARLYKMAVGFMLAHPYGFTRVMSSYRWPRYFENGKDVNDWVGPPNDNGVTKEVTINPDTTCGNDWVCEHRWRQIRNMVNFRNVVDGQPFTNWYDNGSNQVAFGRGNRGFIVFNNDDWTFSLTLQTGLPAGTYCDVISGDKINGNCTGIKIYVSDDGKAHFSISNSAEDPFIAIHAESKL", "assay": "Inhibition of alpha amylase (unknown origin) measured after 20 to 25 mins relative to quercetin", "settings": "time 20-25 min"}, "Dipeptidyl peptidase 4": {"target": "Dipeptidyl peptidase 4 (Homo sapiens, UniProt P27487)", "sequence (P27487 whole entry, looked up)": "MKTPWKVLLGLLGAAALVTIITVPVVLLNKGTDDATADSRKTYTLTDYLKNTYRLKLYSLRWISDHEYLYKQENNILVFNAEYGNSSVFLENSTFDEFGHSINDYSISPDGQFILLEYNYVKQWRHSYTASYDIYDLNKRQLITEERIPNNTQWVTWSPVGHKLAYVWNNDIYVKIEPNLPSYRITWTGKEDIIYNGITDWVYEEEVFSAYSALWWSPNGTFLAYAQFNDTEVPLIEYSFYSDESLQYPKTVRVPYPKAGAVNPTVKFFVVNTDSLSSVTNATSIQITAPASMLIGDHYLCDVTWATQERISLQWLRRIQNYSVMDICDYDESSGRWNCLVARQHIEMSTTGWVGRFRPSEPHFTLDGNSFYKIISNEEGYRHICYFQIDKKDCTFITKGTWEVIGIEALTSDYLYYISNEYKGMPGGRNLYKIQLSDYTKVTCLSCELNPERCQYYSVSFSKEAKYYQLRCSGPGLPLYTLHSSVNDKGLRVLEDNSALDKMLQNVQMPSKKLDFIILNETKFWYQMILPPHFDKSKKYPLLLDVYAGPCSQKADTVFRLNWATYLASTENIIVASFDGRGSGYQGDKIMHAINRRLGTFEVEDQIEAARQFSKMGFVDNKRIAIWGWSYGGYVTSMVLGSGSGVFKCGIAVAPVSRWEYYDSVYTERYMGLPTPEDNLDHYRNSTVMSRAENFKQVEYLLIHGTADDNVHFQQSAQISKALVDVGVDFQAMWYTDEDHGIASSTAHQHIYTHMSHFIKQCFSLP", "assay": "Inhibition of DPP-4 (unknown origin) incubated for 30 mins in presence of substrate by fluorescence based analysis relative to sitagliptin"}, "[11]": {"target": "T2, Sodium/glucose cotransporter 2 (Homo sapiens) (UniProt P31639)", "T2 sequence (whole entry)": "T1 sequence (P31639 whole entry)", "assay": "Inhibition of human SGLT2 by liquid scintillation counter analysis relative to canagliflozin", "settings": "concentration not given here"}, "[12]": {"assay": "Cmax in Swiss albino mouse plasma at 0.2 mmol/Kg, po measured after 24 hrs by HPLC analysis", "type": "ADME, organism-based", "set-up": "time 24 hrs, dose 0.2 mmol/Kg, route po"}, "[13]": {"assay": "Tmax in Swiss albino mouse plasma at 0.2 mmol/Kg, po measured after 24 hrs by HPLC analysis", "type": "ADME, organism-based"}, "[14]": {"assay": "Half life in Swiss albino mouse plasma at 0.2 mmol/Kg, po measured after 24 hrs by HPLC analysis", "type": "ADME, organism-based"}, "[15]": {"assay": "Cytotoxicity against human MCF-10F cells assessed as cell growth inhibition", "type": "toxicity, cell-based"}, "[16]": {"assay": "Cytotoxicity against human MCF-10F cells assessed as cell growth inhibition at 10 uM relative to control", "type": "toxicity, cell-based", "settings": "read-out: GI"}, "[17]": {"assay": "Cytotoxicity against human MRC5 cells assessed as cell growth inhibition", "type": "toxicity, cell-based"}, "[18]": {"assay": "Cytotoxicity against human MRC5 cells assessed as cell growth inhibition at 10 uM relative to control", "type": "toxicity, cell-based", "settings": "read-out: GI"}, "[19]": {"assay": "Cytotoxicity against human THLE-2 cells assessed as cell growth inhibition", "type": "toxicity, cell-based"}, "[20]": {"assay": "Cytotoxicity against human THLE-2 cells assessed as cell growth inhibition at 10 uM relative to control", "type": "toxicity, cell-based", "settings": "read-out: GI"}, "[21]": {"assay": "Cytotoxicity against human BJ cells assessed as cell growth inhibition", "type": "toxicity, cell-based"}, "[22]": {"assay": "Cytotoxicity against human ECT1/E6E7 cells assessed as cell growth inhibition", "type": "toxicity, cell-based"}, "[23]": {"assay": "Cytotoxicity against human ECT1/E6E7 cells assessed as cell growth inhibition at 10 uM relative to control", "type": "toxicity, cell-based", "settings": "read-out: GI"}, "[24]": {"assay": "Cytotoxicity against human HCN-1A cells assessed as cell growth inhibition", "type": "toxicity, cell-based"}, "[25]": {"assay": "Cytotoxicity against HEK293 cells assessed as cell growth inhibition", "type": "toxicity, cell-based", "settings": "human"}, "[26]": {"assay": "Acute toxicity in Swiss albino mouse assessed as effect on mortality up to 2000 mg/kg, po administered for 14 days", "type": "organism-based", "settings": "in vivo, 336 h, time 14 day"}, "[27]": {"assay": "Acute toxicity in Swiss albino mouse assessed as effect on behavioural change up to 2000 mg/kg, po administered for 14 days", "type": "organism-based", "settings": "in vivo, 336 h, time 14 day"}, "[28]": {"assay": "Acute toxicity in Swiss albino mouse assessed as effect on motor alterations up to 2000 mg/kg, po administered for 14 days", "type": "organism-based", "settings": "in vivo, 336 h, time 14 day"}, "[29]": {"assay": "Acute toxicity in Swiss albino mouse assessed as toxic symptoms up to 2000 mg/kg, po administered for 14 days", "type": "organism-based", "settings": "in vivo, 336 h, time 14 day"}},
  "data": [
    {"smiles": "CCOC(=O)C1=C(C)NC(C)=C(C(=O)OCC)C1c1cccc2c1OCO2", "values": [
      {"measurement": "Activity", "setting": "INS1 [1]", "value": 0.27, "unit": "%"},
      {"measurement": "Activity", "setting": "INS1 [2]", "value": 0.42, "unit": "%"},
      {"measurement": "Activity", "setting": "Mus musculus [3]", "value": 72.97, "unit": "%"},
      {"measurement": "Activity", "setting": "Mus musculus [4]", "value": 218, "unit": "%"},
      {"measurement": "Activity", "setting": "Mus musculus [5]", "value": 16.31, "unit": "uU/ml"},
      {"measurement": "Activity", "setting": "Mus musculus [6]", "value": 415.5, "unit": "ng/mL"},
      {"measurement": "Activity", "setting": "Mus musculus [7]", "value": 236.14, "unit": "U/ml"},
      {"measurement": "Activity", "setting": "INS1 [8]", "value": 0.15, "unit": "%"},
      {"measurement": "IC50", "setting": "Alpha glucosidase", "value": 4.48, "unit": "µM"},
      {"measurement": "IC50", "setting": "[9]", "value": 411, "unit": "µM"},
      {"measurement": "inhibition", "setting": "[10]", "value": 47, "unit": "%"},
      {"measurement": "inhibition", "setting": "Dipeptidyl peptidase 4", "value": "< 1", "unit": "%"},
      {"measurement": "inhibition", "setting": "[11]", "value": "< 1", "unit": "%"},
      {"measurement": "Cmax", "setting": "[12]", "value": 10.1, "unit": "µM"},
      {"measurement": "Tmax", "setting": "[13]", "value": 0.8, "unit": "h"},
      {"measurement": "half-life", "setting": "[14]", "value": 1.9, "unit": "h"},
      {"measurement": "GI50", "setting": "[15]", "value": 171, "unit": "µM"},
      {"measurement": "inhibition at 10 µM", "setting": "[16]", "value": 28.7, "unit": "%"},
      {"measurement": "GI50", "setting": "[17]", "value": 61.8, "unit": "µM"},
      {"measurement": "inhibition at 10 µM", "setting": "[18]", "value": 18.6, "unit": "%"},
      {"measurement": "GI50", "setting": "[19]", "value": 67.8, "unit": "µM"},
      {"measurement": "inhibition at 10 µM", "setting": "[20]", "value": 18.3, "unit": "%"},
      {"measurement": "GI50", "setting": "[21]", "value": 15.2, "unit": "µM"},
      {"measurement": "GI50", "setting": "[22]", "value": 3.74, "unit": "µM"},
      {"measurement": "inhibition at 10 µM", "setting": "[23]", "value": 18.9, "unit": "%"},
      {"measurement": "GI50", "setting": "[24]", "value": 28.7, "unit": "µM"},
      {"measurement": "GI50", "setting": "[25]", "value": 19.7, "unit": "µM"},
      {"measurement": "Activity", "setting": "[26]", "value": "Non-Toxic"},
      {"measurement": "Activity", "setting": "[27]", "value": "Non-Toxic"},
      {"measurement": "Activity", "setting": "[28]", "value": "Non-Toxic"},
      {"measurement": "Activity", "setting": "[29]", "value": "Non-Toxic"}
    ]}
  ]
}
